Measurements from article PMC3663898 (Antiviral research, 2013).
≈ marks a conversion by molar mass, not a printed value. Like-named read-outs stand apart in the source and are kept apart here.

Assays:
[1] = tested on: CYP1A2, CYP2C9, CYP2C19, CYP2D6 and CYP3A4; experiment: in vitro; conditions: human
in vitro [2] = conditions: bovine
[3] = male, Sprague-Dawley, rat, in vivo
in vivo = conditions: male, Sprague-Dawley, rat; for C0 / Vd / clearance / half-life: iv
TCRV = experiment: microbe, parasite or virus in culture; assay type: cell-based, Tacaribe virus (11573 strain); conditions: Mammarenavirus tacaribeense, Huh7.5, 48 h; for EC50: read-out: TARV EC50; for EC90: read-out: TARV EC90
in vitro [4] = conditions: hamster
in vitro [5] = conditions: human, Caco-2
DENV = experiment: microbe, parasite or virus in culture; assay type: cell-based, DENV (serotype 2, New Guinea C); conditions: Dengue virus, BHK, 48 h; for EC50: read-out: DENV EC50; for EC90: read-out: DENV EC90
in vitro [6] = conditions: human
[7] = rat, in vivo; for rats with diarrhea: Sprague-Dawley, po, 200 mg/kg

In the case of `CC(C)(C)C(=O)N(CCCCCCN1C[C@H](O)[C@@H](O)[C@H](O)[C@H]1CO)C1CCCCC1` [IHVR17028, N-cyclohexyl-N-(6-((2R,3R,4R,5S)-3,4,5-trihydroxy-2-(hydroxymethyl)piperidin-1-yl)hexyl)pivalamide], the IC50 [1] is reported as > 10 µM, the CC50 (in vitro [2]) is reported as > 500 µM and the “AUC IV” value ([3]; 5 mg/kg) is reported as 1540/903/ND/ND μg*h/mL. For the same compound, the “AUC PO” value ([3]; 25 mg/kg) was 1540/903/ND/ND μg*h/mL, the C0 (in vivo; 5 mg/kg) was 1660 ng/mL and the Vd (in vivo; 5 mg/kg) was 3 L/kg. It also gave a clearance (in vivo; 5 mg/kg) of 55.7 mL/min/kg, a half-life (in vivo; 5 mg/kg) of 0.88 h and a Cmax (in vivo; po, 25 mg/kg) of 180 ng/mL. It also gave a Tmax (in vivo; po, 25 mg/kg) of 1.56 h, an EC50 (TCRV) of 0.26 ± 0.08 µM and an EC90 (TCRV) of 26.7 ± 20.9 µM. For the same compound, the CC50 (in vitro [4]) was > 500 µM, the solubility (physchem; pH 4, aqueous buffer) was 299 µM (≈ 128 µg/mL) and the solubility (physchem; pH 7.4, aqueous buffer) was 311 µM (≈ 133 µg/mL). It also gave an efflux ratio (in vitro [5]) of 31.7, an EC50 (DENV) of 0.3 ± 0.03 µM and an EC90 (DENV) of 1.7 ± 0.8 µM. For the same compound, the CC50 (in vitro [6]) was > 500 µM, the rats with diarrhea [7] was 100% and the “adverse event at lower doses” value [7] was “sign of GI stress, such as anogenital staining or soft stool”.

With `CC(C)(C)NC(=O)N(CCCCCCN1C[C@H](O)[C@@H](O)[C@H](O)[C@H]1CO)C1CCCCC1` [IHVR19029, 3-(tert-butyl)-1-cyclohexyl-1-(6-((2R,3R,4R,5S)-3,4,5-trihydroxy-2-(hydroxymethyl)piperidin-1-yl)hexyl)urea] the IC50 [1] was > 10 µM, the CC50 (in vitro [2]) was > 500 µM and the “AUC IM” value [3] was 1383/945/1839/983 μg*h/mL. For the same compound, the “F PO” value [3] was 4.6/71/133%, the “AUC IP” value ([3]; ip, 5 mg/kg) was 1383/945/1839/983 μg*h/mL and the “AUC IV” value ([3]; 5 mg/kg) was 1383/945/1839/983 μg*h/mL. The “AUC PO” value ([3]; 75 mg/kg) was 1383/945/1839/983 μg*h/mL, the Tmax (in vivo) was 0.167 h and the Cmax (in vivo; im, 5 mg/kg) was 1230 ng/mL. The Tmax (in vivo; im, 5 mg/kg) was 0.1 h, the Cmax (in vivo; ip, 5 mg/kg) was 1330 ng/mL and the Tmax (in vivo; ip, 5 mg/kg) was 0.17 h. The C0 (in vivo; 5 mg/kg) was 1790 ng/mL, the Vd (in vivo; 5 mg/kg) was 3 L/kg and the clearance (in vivo; 5 mg/kg) was 58.2 mL/min/kg. For the same compound, the half-life (in vivo; 5 mg/kg) was 1.2 h, the Cmax (in vivo; po, 75 mg/kg) was 260 ng/mL and the Tmax (in vivo; po, 75 mg/kg) was 2.1 h. The “mortality or clinical signs” value (Balb/c mice, single dose IP or IM up to 200mg/kg, 9-day observation) was “No mortality or clinical signs were observed”, the “weight loss and GI alterations” value (mouse, in vivo) was “No significant weight loss and GI alterations” and the EC50 (TCRV) was 0.74 ± 0.3 µM. The EC90 (TCRV) was 52.5 ± 38.9 µM, the CC50 (in vitro [4]) was > 500 µM and the solubility (physchem; pH 4, aqueous buffer) was 309 µM (≈ 137 µg/mL). The solubility (physchem; pH 7.4, aqueous buffer) was 303 µM (≈ 134 µg/mL), the efflux ratio (in vitro [5]) was 34.2 and the EC50 (DENV) was 1.25 ± 1.1 µM. For the same compound, the EC90 (DENV) was 22.5 ± 10.6 µM and the CC50 (in vitro [6]) was > 500 µM.

For `OC[C@@H]1[C@@H](O)[C@H](O)[C@@H](O)CN1CCCCCCOc1cc(F)ccc1F` [IHVR11029, (2R,3R,4R,5S)-1-(6-(2,5-difluorophenoxy)hexyl)-2-(hydroxymethyl)piperidine-3,4,5-triol], the IC50 [1] was > 10 µM, the CC50 (in vitro [2]) was > 500 µM and the “F PO” value [3] was 92/ND/ND %. For the same compound, the “AUC IV” value ([3]; 5 mg/kg) was 1990/9180/ND/ND μg*h/mL, the “AUC PO” value ([3]; 25 mg/kg) was 1990/9180/ND/ND μg*h/mL and the C0 (in vivo; 5 mg/kg) was 1620 ng/mL. For the same compound, the clearance (in vivo; 5 mg/kg) was 42.3 mL/min/kg, the Tmax (in vivo; po, 25 mg/kg) was 4.17 h and the EC50 (TCRV) was 3.3 ± 2.7 µM. The EC90 (TCRV) was 69 ± 37.7 µM, the CC50 (in vitro [4]) was > 500 µM and the EC50 (DENV) was 0.75 ± 0.06 µM. For the same compound, the EC90 (DENV) was 6.3 ± 3.5 µM, the CC50 (in vitro [6]) was > 500 µM and the rats with diarrhea [7] was 50%. For the same compound, the “adverse event at lower doses” value [7] was “sign of GI stress, such as anogenital staining or soft stool”.
